Square brackets hold non-standard residues; d marks the D form. Peptide text beside a SMILES is read from it. * marks the point of attachment. Cbz = O=C(OCc1ccccc1)*; Thz = O=C(O)[CH]1CSCN1; CH2F = FC*
What was measured:
[1] = test system: IL-1β secretion from PBMC; test: Inhibition of IL-1β secretion from mixed population of PBMC; format: cell-based; conditions: human PBMC, LPS 50 ng/ml, 16–18 h, mature IL-1β in supernatant
Description: Processing of pre-IL-1β by caspase-1 can be measured in cell culture using a variety of cell sources. Human PBMC obtained from healthy donors provides a mixed population of lymphocyte and mononuclear cells that produce a spectrum of interleukins and cytokines in response to many classes of physiological stimulators.
The test compound is dissolved in Dimethyl Sulphoxide (DMSO,Sigma #D-2650) to give a 100 mM stock solution. This is diluted in complete medium consisting of RPMI containing 10% heat inactivated FCS (Gibco BRL #10099-141), 2 mM L-Glutamine (Sigma, #G-7513), 100U penicillin and 100 μg/ml streptomycin (Sigma #P-7539). The final concentration range of test compound is from 100 μM down to 6 nM over eight dilution steps. The highest concentration of test compound is equivalent to 0.1% DMSO in the assay.
Human PBMC are isolated from Buffy Coats obtained from the blood bank using centrifugation on Ficoll-Paque leukocyte separation medium (Amersham, #17-1440-02) and the cellular assay is performed in a sterile 96 well flat-bottomed plate (Nunc). Each well contains 100 μl of the cell suspension, 1×10^5 cells, 50 µl of compound dilutions and 50 μl of LPS (Sigma #L-3012) at 50 ng/ml final concentration. Controls consist of cells +/−LPS stimulation and a serial dilution of DMSO diluted in the same way as compound. The plates are incubated for 16–18 h at 37° C. in 5% CO2 & 95% humidity atmosphere.
After 16–18 h the supernatants are harvested after centrifuging the plates at 100×g at 18° C. for 15 min and assayed for their IL-1β content. Measurement of mature IL-1[…] in the supernatant is performed using the Quantikine kits (R&D Systems) according to manufacturer's instructions. Mature IL-1β levels of about 600–1500 pg/ml are observed for PBMCs in positive control wells.
The inhibitory potency of the compounds can be represented by an IC50 value, which is the concentration of inhibitor at which 50% of the mature IL-1β is detected in the supernatant as compared to the positive controls.

[2] = molecular target: T1, recombinant, purified human Caspase-1 (Homo sapiens, UniProt P29466); test: Caspase-1 enzyme inhibition assay (fluorogenic substrate cleavage); format: biochemical; conditions: second order rate constant of enzyme inactivation; substrate Acetyl-Tyr-Val-Ala-Asp-amino-4-methylcoumarin
T1 sequence (P29466 120-297 limits assumed): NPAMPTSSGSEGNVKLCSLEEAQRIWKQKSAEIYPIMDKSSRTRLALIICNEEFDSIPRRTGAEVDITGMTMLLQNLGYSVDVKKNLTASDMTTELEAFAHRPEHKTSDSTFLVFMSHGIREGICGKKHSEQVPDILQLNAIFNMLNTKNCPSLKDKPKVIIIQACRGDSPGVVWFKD
T1 sequence (P29466 317-404 limits assumed): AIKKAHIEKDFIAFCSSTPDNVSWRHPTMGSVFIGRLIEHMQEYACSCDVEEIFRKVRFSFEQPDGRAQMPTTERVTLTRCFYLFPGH
Text: (§1) The assays for caspase inhibition are based on the cleavage of a fluorogenic substrate by recombinant, purified human Caspases -1, -3, or -8. The assays are run in essentially the same way as those reported by Garcia-Calvo et al. (J. Biol. Chem. 273 (1998), 32608–32613), using a substrate specific for each enzyme. The substrate for Caspase-1 is Acetyl-Tyr-Val-Ala-Asp-amino-4-methylcoumarin (SEQ ID NO:1). The substrate for Caspases -3, and -8 is Acetyl-Asp-Glu-Val-Asp-amino-4-methylcoumarin (SEQ ID NO:2).
(§2) The observed rate of enzyme inactivation at a particular inhibitor concentration, kobs, is computed by direct fits of the data to the equation derived by Thornberry et al. (Biochemistry 33 (1994), […]) using a nonlinear least-squares analysis computer program (PRISM 2.0; GraphPad software). To obtain the second order rate constant, kinact, kobs values are plotted against their respective inhibitor concentrations and kinact values are subsequently calculated by computerized linear regression.

[3] = molecular target: recombinant, purified human Caspase-8 (Homo sapiens, UniProt Q14790); test: Caspase-8 enzyme inhibition assay (fluorogenic substrate cleavage); format: biochemical; conditions: second order rate constant of enzyme inactivation; substrate Acetyl-Asp-Glu-Val-Asp-amino-4-methylcoumarin
Sequence of recombinant, purified human Caspase-8 (Q14790 217-374 limits assumed): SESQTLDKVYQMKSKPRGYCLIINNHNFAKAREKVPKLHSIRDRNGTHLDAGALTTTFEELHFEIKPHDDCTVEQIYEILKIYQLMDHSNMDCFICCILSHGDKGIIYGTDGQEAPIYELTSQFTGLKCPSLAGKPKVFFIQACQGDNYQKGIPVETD
Sequence of recombinant, purified human Caspase-8 (Q14790 385-479 limits assumed): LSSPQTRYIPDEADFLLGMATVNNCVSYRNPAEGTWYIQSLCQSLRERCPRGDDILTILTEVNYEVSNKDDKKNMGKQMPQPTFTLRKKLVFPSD
Text: as §1, §2

[4] = test system: cortical neurons; test: Hypoxia-induced apoptosis of cortical neurons assay; format: cell-based, Wistar rat; conditions: Cortical neurone; rat embryo cortical neurons, hypoxia 42 hours, DNA fragmentation ELISA
Description: Apoptosis can be induced by growth factor withdrawal and by hypoxia. This assay measures the extent of DNA fragmentation indicating the effectiveness of caspase inhibitors to prevent apoptosis. Experimental Procedure Cortical neurons were dissociated from Wistar rat embryos (E17) by a modification of the procedure of Rogers et al 1997, Brain Res Bulletin 44:131. Cerebral cortices were isolated aseptically from 15–20 Wistar rat embryos. A cell suspension was prepared by mincing the cerebral cortices and digesting them with papain. Cells were washed with ovomucoid enzyme inhibitor and DNaseI and plated onto Poly D lysine coated plates in high glucose DMEM containing 10% heat-inactivated foetal calf serum, L-glutamine, penicillin and streptomycin. The yield of neurons was 10^7 per embryo and they were 80–90% viable as assessed by Trypan blue exclusion.
Cells were seeded at 1×10^6 cells per cm^2 in 96-well plates and cultured in complete medium (in high glucose DMEM containing 10% heat-inactivated foetal calf serum, L-glutamine, penicillin and streptomycin) at 37° C. in a normal atmosphere for 48 hours prior to the hypoxia experiments. Hypoxia was performed as described (Tamatani et al.1998, Molecular Brain Research, 58:27). The normal cell medium was replaced by hypoxic medium and cells were incubated in an atmosphere of 95% N2/5% CO2 for 42 hours. For compound testing, compounds were dissolved in DMSO at 100 mM then diluted in medium and added to the culture at the beginning of the hypoxic period. Apoptosis was measured using an ELISA assay to detect DNA fragmentation (Roche). Controls included cells cultured in aerobic conditions in serum-containing medium.

[5] = molecular target: T2, recombinant, purified human Caspase-3 (Homo sapiens, UniProt P42574); test: Caspase-3 enzyme inhibition assay (fluorogenic substrate cleavage); format: biochemical; conditions: second order rate constant of enzyme inactivation; substrate Acetyl-Asp-Glu-Val-Asp-amino-4-methylcoumarin
T2 sequence (P42574 29-175 limits assumed): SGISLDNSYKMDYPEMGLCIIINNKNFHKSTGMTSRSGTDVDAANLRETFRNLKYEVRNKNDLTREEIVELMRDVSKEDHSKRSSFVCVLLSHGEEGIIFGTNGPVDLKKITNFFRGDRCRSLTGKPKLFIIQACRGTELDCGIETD
T2 sequence (P42574 176-277 limits assumed): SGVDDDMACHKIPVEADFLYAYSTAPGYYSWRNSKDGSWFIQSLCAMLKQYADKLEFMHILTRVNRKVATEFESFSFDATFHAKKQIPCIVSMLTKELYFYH
Text: The assays for caspase inhibition are based on the cleavage of a fluorogenic substrate by recombinant, purified human Caspases -1, -3, or -8.
To obtain the second order rate constant, kinact, kobs values are plotted against their respective inhibitor concentrations and kinact values are subsequently calculated by computerized linear regression.

Structure (SMILES) | IC50 [1] [nM] | C-1 Kinact [2] | C-8 Kinact [3] | IC50 [4] [nM] | C-3 Kinact [5]
O=C(O)CC(NC(=O)[C@@H]1CCCCN1C(=O)OCc1cccc(Cl)c1)C(=O)CF (stereo partly drawn) [Example 5, [3S/R,(2S)]-3-(1-(3-Chlorobenzyloxycarbonyl)-2-piperidinecarboxamido)-5-fluoro-4-oxo-pentanoic acid] | 500 |  |  |  | 
CC(C)[C@H](NC(=O)OCc1ccc(Cl)cc1)C(=O)NC(CC(=O)O)C(=O)CF (stereo partly drawn) [4-ClCbz-Val-Asp-fmk] |  | 69 × 1000 M^−1s^−1 | 175 × 1000 M^−1s^−1 | 1980 | 
O=C(O)CC(NC(=O)[C@@H]1CCCCN1C(=O)OCc1cc(Cl)ccc1Cl)C(=O)CF (stereo partly drawn) [Example 23, [3S/R,(2S)]-5-Fluoro-3-(1-(2,5-dichlorobenzyloxycarbonyl)-2-piperidinecarboxamido)-4-oxo-pentanoic acid] |  |  |  | 336 | 
O=C(O)CC(NC(=O)[C@@H]1CCc2ccccc2N1C(=O)OCc1ccccc1)C(=O)CF (stereo partly drawn) [Example 3, [3S/R,(2S)]-3-(1-Benzyloxycarbonyl-1,2,3,4-tetrahydro-quinolinyl-2-carboxamido)-5-fluoro-4-oxo-pentanoic acid] | 1150 | 318 × 1000 M^−1s^−1 | 122 × 1000 M^−1s^−1 |  | 239.5 × 1000 M^−1s^−1
O=C(O)CC(NC(=O)[C@@H]1CCCCN1C(=O)O[C@H](c1cccc(Cl)c1)C(F)(F)F)C(=O)CF (stereo partly drawn) [Example 34] |  | 518 × 1000 M^−1s^−1 | 839 × 1000 M^−1s^−1 | 463 | 181 × 1000 M^−1s^−1
O=C(O)CC(NC(=O)C1CSCN1C(=O)OCc1ccccc1)C(=O)CF (stereo not drawn) [Cbz-Thz-Asp-fmk] (Cbz-[Thz]-Asp-CH2F; configuration not given here) | 2310 | 227.5 × 1000 M^−1s^−1 | 12 × 1000 M^−1s^−1 | 1560 | 
O=C(O)CC(NC(=O)C1CCCN1C(=O)OCc1ccccc1)C(=O)CF (stereo not drawn) [Cbz-Pro-Asp-fmk] (Cbz-Pro-Asp-CH2F; configuration not given here) | > 10000 | 7.5 × 1000 M^−1s^−1 | 15.5 × 1000 M^−1s^−1 | 2780 | 

From patent publication US7053057B2, “Caspase inhibitors and uses thereof” (Vertex Pharmaceuticals Incorporated, priority 2000, dated 2006)
